In patent US8377883B2, “Peptide for anti-angiogenesis and use thereof” (Beijing Institute for Cancer Research, priority 2006, dated 2013):

Experiments:
[1] = test system: osteosarcoma S180 cells; assay: Tumor suppression in osteosarcoma S180 cells tumor-bearing mouse model (Example 4); format: in vivo, mice of Kunming strain; settings: 50 m/1000 PBS/injection, angulus oculi medialis vein daily, 7 times; vs PBS control, P<0.05
Experimental: To confirm the biological effects of FpAT on the growth of mice deriving tumor in mice in vivo, a tumor suppression experiment was carried out in this example using liver cancer H22 cells tumor-bearing mouse model of mice of Kunming strain and osteosarcoma S180 cells tumor-bearing mouse model of mice of Kunming strain. Forty 5-week old mice of Kunming strain purchased from Animal Center Of Chinese Academy Of Medical Sciences were inoculated subcutaneously in forelimb with mouse liver cancer H22 cells (National Institute for the Control of Pharmaceutical and Biological Products) (5×10^6/100 μl/mouse) or osteosarcoma S180 cells (National Institute for the Control of Pharmaceutical and Biological Products) (5×10^6/100 μl/mouse). On the next day after inoculation, each kind of inoculated cells were divided into 2 groups randomly with 10 mice per group. FpAT ([…]) or vehicle (the solvent for peptide) control (PBS:100 μl/injection) were injected in angulus oculi medialis vein daily, 7 times in total. The mice were sacrificed by dislocating the neck on the next day after administration was stopped, and the tumors were taken and weighed for a statistical analysis.

[2] = test system: human lung cancer PG cells; assay: Tumor suppression in human lung cancer PG tumor-bearing nude mice model; format: in vivo, Balb/c nude mice; settings: 50 μg/100 μl PBS/injection, angulus oculi medialis vein once every other day, 10 times; vs vehicle, P<0.05
Experimental: In order to confirm the biological effects of FpAT on the growth of human deriving tumors in nude mice in vivo, a tumor suppression experiment was carried out in this example using human gastric carcinoma BGC-823 cells tumor-bearing nude mice model, human lung cancer PG cells tumor-bearing nude mice model and human colon cancer HT-29 cells tumor-bearing nude mice model.
Twenty 5-week old Balb/c nude mice purchased from Animal Center Of Chinese Academy Of Medical Sciences were inoculated subcutaneously in forelimb with human gastric carcinoma BGC-823 cells (National Institute for the Control of Pharmaceutical and Biological Products) (5×10^6/100 μl/mouse), human lung cancer PG cells (National Institute for the Control of Pharmaceutical and Biological Products) (5×10^6/100 μl/mouse) or human colon cancer HT-29 cells (ATCC® Number: HTB-38™) (5×10^6/100 μl/mouse). On the next day after inoculation, each kind of inoculated cells were divided into 2 groups randomly with 5 mice per group. […] Observation was continued for another 20 days after administration was stopped, and during this period the long and short diameters of the tumors were measured with a vernier caliper once every three days, and the volumes of the tumor mass were calculated according to formula ½×long diameter×short diameter^2. […]

H2N-Asp-Ser-Gly-Glu-Gly-Asp-Phe-Leu-Ala-Glu-Gly-Gly-Gly-Val-Arg-COOH (H-DSGEGDFLAEGGGVR-OH; listed as Homo sapiens) [FpAT, fibrinopeptide A truncated, carboxyl terminal 15 amino acids of fibrinopeptide A]
growth of osteosarcoma S180 cells in vivo (tumor mass) [1]: could suppressed the growths | growth of human lung cancer PG cells in nude mice (tumor mass) [2]: could suppress the growths
